Measurements: ChEMBL document CHEMBL1201862, “PubChem BioAssay data set” (2004)
The source made the active and inactive calls.

Columns and labels:
[1] = target: T1, Sentrin-specific protease 8 (Homo sapiens, UniProt Q96LD8); assay: SENP8 protease inhibitors, SAR follow-up, biochemical, luminescence (AID 504501); format: functional
T1 sequence (Q96LD8 whole entry): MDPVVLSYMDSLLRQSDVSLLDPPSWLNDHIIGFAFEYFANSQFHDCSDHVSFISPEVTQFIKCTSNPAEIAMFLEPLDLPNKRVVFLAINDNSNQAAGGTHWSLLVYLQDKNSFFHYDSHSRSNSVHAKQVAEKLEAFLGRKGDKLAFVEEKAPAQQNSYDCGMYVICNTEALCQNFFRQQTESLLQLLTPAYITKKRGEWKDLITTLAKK

[2] = target: T2, Sentrin-specific protease 7 (Homo sapiens, UniProt Q9BQF6); assay: SENP7 protease inhibitors, SAR follow-up, biochemical, luminescence (AID 504497); format: functional
T2 sequence (Q9BQF6 whole entry): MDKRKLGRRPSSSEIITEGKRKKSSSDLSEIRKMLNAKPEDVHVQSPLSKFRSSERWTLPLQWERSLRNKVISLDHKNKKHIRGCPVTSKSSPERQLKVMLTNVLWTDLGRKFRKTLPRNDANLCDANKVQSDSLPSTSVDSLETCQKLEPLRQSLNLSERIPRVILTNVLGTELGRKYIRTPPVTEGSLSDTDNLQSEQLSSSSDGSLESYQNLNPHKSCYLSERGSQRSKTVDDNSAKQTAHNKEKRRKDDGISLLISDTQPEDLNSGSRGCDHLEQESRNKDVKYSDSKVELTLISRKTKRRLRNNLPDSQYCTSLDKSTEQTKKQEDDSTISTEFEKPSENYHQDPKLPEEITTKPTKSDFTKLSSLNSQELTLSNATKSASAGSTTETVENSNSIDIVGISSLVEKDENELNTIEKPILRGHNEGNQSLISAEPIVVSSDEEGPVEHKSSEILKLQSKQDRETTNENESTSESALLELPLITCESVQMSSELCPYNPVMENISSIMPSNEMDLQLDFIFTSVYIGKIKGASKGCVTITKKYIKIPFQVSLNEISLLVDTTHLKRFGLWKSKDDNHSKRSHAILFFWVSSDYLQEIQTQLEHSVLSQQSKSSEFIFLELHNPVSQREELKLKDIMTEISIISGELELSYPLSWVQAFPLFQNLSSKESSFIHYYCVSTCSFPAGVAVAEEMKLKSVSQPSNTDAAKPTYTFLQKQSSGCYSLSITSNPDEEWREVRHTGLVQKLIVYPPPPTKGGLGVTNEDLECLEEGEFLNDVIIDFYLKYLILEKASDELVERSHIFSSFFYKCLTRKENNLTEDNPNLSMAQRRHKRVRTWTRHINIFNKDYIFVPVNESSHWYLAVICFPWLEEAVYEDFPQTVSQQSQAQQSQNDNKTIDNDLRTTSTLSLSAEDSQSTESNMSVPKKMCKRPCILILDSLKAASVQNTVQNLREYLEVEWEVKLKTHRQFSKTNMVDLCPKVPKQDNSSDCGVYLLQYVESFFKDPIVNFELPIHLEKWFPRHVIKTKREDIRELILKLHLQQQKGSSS

[3] = target: Protein kinase C theta type (Homo sapiens, UniProt Q04759); assay: Navigating the Kinome. Panel member name: PRKCQ; format: functional
[4] = target: Dual specificity mitogen-activated protein kinase kinase 1 (Homo sapiens, UniProt Q02750); assay: Navigating the Kinome. Panel member name: MAP2K1; format: functional
[5] = target: Tyrosine-protein kinase JAK2 (Homo sapiens, UniProt O60674); format: functional;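 also: JAK2 tested as one member of a kinase panel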
[6] = target: Tyrosine-protein kinase receptor TYRO3 (Homo sapiens, UniProt Q06418); format: functional;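 also: TYRO3 value obtained as one member of a kinome-wide profiling panel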
[7] = target: Death-associated protein kinase 3 (Homo sapiens, UniProt O43293); format: functional;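 also: measured as one member of a kinome-wide profiling panel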
Chain of Death-associated protein kinase 3 (O43293 whole entry): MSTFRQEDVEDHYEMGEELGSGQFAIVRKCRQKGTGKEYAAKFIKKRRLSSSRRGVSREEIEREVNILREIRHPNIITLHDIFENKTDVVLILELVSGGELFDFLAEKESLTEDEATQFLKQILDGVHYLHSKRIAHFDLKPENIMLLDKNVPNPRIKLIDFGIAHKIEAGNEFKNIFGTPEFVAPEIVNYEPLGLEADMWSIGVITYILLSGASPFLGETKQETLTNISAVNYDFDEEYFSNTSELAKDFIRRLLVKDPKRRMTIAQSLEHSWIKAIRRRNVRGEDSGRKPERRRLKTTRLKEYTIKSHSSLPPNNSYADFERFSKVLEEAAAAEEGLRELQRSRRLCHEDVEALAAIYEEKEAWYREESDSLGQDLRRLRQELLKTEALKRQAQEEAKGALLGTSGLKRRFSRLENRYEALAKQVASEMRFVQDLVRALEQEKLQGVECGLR

Activin receptor type-1 = Activin receptor type-1 (Homo sapiens, UniProt Q04771); assay: Navigating the Kinome. Panel member name: ACVR1; format: functional
[8] = target: Mitogen-activated protein kinase 8 (Homo sapiens, UniProt P45983); format: functional;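 also: value comes from one member of a kinome-wide kinase profiling panel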
Chain of Mitogen-activated protein kinase 8 (P45983 whole entry): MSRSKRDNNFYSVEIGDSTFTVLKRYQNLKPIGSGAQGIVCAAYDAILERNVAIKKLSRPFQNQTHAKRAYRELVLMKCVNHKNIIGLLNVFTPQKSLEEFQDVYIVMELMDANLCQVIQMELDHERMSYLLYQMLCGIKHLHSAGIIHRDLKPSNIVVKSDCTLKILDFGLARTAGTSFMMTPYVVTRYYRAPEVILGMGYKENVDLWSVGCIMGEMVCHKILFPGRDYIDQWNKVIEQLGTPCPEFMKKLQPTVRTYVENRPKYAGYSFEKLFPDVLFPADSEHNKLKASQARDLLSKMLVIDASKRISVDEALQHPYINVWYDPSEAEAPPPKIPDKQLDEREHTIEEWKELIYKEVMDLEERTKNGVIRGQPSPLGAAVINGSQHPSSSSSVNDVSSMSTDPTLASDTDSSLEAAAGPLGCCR

[9] = target: Mitogen-activated protein kinase 9 (Homo sapiens, UniProt P45984); format: functional;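 also: value from a kinome panel profiling assay, MAPK9 panel entry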
Chain of Mitogen-activated protein kinase 9 (P45984 whole entry, the tested form may be a part): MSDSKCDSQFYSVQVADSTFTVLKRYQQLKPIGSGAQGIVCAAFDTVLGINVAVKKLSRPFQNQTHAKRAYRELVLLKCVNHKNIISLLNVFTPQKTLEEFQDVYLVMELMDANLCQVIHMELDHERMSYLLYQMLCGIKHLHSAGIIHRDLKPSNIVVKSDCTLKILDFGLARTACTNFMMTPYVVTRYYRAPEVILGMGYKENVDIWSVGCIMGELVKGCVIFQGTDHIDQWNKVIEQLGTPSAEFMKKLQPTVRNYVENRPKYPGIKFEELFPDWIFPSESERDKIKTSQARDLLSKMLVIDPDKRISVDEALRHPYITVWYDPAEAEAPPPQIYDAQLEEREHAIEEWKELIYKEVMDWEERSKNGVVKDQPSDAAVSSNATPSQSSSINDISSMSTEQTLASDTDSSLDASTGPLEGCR

LIM domain kinase 1 = LIM domain kinase 1 (Homo sapiens, UniProt P53667); assay: Navigating the Kinome. Panel member name: LIMK1; format: functional
[10] = target: Hepatocyte growth factor receptor (Homo sapiens, UniProt P08581); format: functional;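 also: kinase panel profiling across the kinome, with MET as the panel member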
[11] = target: Vascular endothelial growth factor receptor 2 (Homo sapiens, UniProt P35968); format: functional
Chain of Vascular endothelial growth factor receptor 2 (P35968 whole entry): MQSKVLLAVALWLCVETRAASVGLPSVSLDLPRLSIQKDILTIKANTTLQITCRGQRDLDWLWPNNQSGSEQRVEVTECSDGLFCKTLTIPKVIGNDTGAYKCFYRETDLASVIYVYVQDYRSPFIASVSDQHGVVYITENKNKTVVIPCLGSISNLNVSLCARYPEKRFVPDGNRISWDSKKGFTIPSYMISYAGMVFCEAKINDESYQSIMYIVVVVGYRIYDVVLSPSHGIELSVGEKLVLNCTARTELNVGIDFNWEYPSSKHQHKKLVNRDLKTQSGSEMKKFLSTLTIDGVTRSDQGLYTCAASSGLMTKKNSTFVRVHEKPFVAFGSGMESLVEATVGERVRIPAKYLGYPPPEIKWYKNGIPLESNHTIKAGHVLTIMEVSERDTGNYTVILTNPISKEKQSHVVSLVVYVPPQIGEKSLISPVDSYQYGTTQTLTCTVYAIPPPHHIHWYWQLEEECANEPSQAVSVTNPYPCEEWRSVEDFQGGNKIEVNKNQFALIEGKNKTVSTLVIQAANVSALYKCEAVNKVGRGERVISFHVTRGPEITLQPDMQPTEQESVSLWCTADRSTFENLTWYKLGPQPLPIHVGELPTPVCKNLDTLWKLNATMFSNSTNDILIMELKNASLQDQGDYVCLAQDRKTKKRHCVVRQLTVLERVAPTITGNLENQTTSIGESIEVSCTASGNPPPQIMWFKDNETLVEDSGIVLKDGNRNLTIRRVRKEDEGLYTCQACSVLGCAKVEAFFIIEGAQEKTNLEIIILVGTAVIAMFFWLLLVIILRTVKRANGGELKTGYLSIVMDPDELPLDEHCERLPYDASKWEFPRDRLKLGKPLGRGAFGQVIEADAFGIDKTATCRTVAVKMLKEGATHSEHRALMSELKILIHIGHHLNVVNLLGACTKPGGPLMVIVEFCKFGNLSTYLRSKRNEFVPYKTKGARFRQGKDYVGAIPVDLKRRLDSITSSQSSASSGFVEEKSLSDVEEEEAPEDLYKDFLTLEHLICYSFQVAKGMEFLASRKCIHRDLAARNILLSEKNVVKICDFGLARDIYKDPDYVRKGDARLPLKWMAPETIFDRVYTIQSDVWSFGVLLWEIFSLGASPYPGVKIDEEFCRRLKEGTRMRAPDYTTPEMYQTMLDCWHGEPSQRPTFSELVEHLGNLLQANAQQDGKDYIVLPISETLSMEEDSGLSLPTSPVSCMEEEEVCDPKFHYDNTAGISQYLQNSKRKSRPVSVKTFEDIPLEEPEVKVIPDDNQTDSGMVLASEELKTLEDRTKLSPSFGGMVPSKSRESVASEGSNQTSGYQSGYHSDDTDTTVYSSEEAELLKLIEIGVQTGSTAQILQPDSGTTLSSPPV

[12] = target: Insulin-like growth factor 1 receptor (Homo sapiens, UniProt P08069); assay: Navigating the Kinome. Panel member name: IGF1R; format: functional
Chain of Insulin-like growth factor 1 receptor (P08069 31-736 limits assumed): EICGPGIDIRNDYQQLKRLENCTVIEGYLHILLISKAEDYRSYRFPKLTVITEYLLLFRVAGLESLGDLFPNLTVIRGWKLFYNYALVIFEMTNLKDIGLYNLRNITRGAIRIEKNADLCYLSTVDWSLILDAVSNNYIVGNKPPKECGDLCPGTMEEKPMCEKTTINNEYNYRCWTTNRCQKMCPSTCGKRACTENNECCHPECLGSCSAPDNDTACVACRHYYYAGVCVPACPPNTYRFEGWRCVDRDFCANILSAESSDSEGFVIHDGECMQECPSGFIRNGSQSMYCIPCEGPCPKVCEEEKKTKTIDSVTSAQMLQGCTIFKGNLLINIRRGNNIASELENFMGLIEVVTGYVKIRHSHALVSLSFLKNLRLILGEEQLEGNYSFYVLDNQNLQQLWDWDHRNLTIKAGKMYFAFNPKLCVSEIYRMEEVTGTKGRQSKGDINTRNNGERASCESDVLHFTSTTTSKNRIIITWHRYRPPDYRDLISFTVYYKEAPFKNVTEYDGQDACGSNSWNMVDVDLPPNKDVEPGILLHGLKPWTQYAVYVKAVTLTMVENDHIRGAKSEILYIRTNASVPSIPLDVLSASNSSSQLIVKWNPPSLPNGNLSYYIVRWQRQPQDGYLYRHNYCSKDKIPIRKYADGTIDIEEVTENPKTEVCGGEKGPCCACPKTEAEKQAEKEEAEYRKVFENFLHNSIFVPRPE
Chain of Insulin-like growth factor 1 receptor (P08069 741-1367 limits assumed): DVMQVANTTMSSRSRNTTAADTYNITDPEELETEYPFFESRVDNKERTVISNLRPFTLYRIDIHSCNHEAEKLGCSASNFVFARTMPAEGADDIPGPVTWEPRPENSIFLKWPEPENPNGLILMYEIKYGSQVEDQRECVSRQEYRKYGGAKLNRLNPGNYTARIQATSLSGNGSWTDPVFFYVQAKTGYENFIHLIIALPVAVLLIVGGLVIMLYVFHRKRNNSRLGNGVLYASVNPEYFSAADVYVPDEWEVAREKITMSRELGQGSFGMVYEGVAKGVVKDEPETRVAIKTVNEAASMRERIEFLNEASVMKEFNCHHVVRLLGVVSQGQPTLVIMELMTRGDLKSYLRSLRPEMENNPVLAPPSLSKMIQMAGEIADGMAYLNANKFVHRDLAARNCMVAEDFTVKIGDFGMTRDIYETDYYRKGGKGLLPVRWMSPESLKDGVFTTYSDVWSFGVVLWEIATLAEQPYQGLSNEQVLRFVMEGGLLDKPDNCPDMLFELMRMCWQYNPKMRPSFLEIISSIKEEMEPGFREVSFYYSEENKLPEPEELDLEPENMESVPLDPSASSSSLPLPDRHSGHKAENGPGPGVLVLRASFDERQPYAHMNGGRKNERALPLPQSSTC

[13] = target: Leucine-rich repeat serine/threonine-protein kinase 2 (Homo sapiens, UniProt Q5S007); format: functional;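 also: value from a broad kinome-wide panel profiling study in which LRRK2 was one of the kinases tested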
[14] = target: Tyrosine-protein kinase Fyn (Homo sapiens, UniProt P06241); format: functional
[15] = target: Glycogen synthase kinase-3 beta (Homo sapiens, UniProt P49841); format: functional;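 also: value comes from a broad kinome profiling panel, with GSK3B as the panel member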
[16] = target: Dual specificity protein kinase CLK4 (Homo sapiens, UniProt Q9HAZ1); format: functional
[17] = target: Macrophage colony-stimulating factor 1 receptor (Homo sapiens, UniProt P07333); format: functional;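 also: value comes from the Navigating the Kinome screening panel, CSF1R member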
Chain of Macrophage colony-stimulating factor 1 receptor (P07333 whole entry): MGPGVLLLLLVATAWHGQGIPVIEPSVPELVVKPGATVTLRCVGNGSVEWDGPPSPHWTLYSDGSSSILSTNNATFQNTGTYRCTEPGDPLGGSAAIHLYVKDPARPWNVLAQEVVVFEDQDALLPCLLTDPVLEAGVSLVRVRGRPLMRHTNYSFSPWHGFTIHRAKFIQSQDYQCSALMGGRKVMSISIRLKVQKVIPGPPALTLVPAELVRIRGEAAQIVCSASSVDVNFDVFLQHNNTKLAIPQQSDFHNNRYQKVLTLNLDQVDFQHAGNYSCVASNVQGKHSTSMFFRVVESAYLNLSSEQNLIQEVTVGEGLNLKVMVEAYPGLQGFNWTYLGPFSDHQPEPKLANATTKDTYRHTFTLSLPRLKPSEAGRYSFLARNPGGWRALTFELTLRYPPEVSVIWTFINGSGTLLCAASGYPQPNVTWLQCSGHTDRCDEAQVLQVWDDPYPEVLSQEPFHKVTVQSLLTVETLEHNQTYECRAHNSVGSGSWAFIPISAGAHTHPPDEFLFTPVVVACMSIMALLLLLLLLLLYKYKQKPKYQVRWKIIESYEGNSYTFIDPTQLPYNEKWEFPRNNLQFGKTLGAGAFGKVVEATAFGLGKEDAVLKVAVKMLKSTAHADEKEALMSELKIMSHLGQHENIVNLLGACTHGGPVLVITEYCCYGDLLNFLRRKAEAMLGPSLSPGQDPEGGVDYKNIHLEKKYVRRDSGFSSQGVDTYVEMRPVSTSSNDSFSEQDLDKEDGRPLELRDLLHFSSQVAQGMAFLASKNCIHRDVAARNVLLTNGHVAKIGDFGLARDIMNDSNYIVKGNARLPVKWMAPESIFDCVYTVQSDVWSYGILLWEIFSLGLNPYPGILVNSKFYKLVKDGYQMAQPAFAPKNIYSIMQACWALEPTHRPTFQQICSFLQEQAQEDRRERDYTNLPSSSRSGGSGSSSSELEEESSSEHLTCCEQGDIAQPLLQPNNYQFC

Streptokinase A = target: T3, Streptokinase A (Streptococcus pyogenes serotype M1, UniProt P10520); assay: S. pyogenes streptokinase expression inhibitors, potency, dose response, plasminogen activation absorbance, OD405 (AID 1914); format: functional, Streptococcus pyogenes M1 GAS;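 also: secreted streptokinase activity via plasminogen activation per viability signal from cell pellet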
T3 sequence (P10520 whole entry): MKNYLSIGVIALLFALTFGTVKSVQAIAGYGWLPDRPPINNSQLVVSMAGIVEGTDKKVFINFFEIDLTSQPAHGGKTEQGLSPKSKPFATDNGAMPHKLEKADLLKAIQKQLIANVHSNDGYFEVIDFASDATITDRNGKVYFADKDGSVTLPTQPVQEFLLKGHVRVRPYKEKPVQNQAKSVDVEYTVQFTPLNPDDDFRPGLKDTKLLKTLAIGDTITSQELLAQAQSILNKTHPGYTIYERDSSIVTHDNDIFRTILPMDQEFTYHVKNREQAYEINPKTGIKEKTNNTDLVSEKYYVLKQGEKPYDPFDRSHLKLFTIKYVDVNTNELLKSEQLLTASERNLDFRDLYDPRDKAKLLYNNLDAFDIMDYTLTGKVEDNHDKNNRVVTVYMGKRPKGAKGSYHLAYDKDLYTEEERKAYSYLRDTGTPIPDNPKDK

Beta-galactosidase = Beta-galactosidase (Escherichia coli, UniProt Q8VNN2); assay: beta-galactosidase enzyme inhibitors and activators, dose response, artefact control for CCR6 antagonist project, biochemical, E. coli enzyme, set 3 (AID 504712); format: functional
[18] = target: Matrix metalloproteinase-14 (Homo sapiens, UniProt P50281); assay: SAR confirmation of uHTS hits for a small molecule inhibitors of MT1-MMP activation in a fluorescence assay.; format: functional

Structure (SMILES): Cc1ccc(NC(=O)COc2cccc(/C=C3\SC(=S)N(CCC(=O)O)C3=O)c2)cc1Cl
- IC50 [1]: > 99 µM (inactive)
- IC50 [2]: 12.7 µM (active)

Structure (SMILES): COc1cccc(C(C)NC(=O)c2ccc(-c3ccncc3)s2)c1 (configuration not stated)
- Ki [3]: 0.316 µM (active)
- Ki [4]: > 3.16 µM (inactive)
- Ki [5]: > 2.51 µM (inactive)
- Ki [6]: > 3.16 µM (inactive)
- Ki [7]: > 5.01 µM (inactive)
- Ki (Activin receptor type-1): 2.51 µM (active)
- Ki [8]: > 5.01 µM (inactive)
- Ki [9]: > 3.98 µM (inactive)
- Ki (LIM domain kinase 1): > 3.16 µM (inactive)
- Ki [10]: > 2.51 µM (inactive)
- Ki [11]: > 2.51 µM (inactive)
- Ki [12]: > 2.51 µM (inactive)
- Ki [13]: > 2.51 µM (inactive)
- Ki [14]: > 6.31 µM (inactive)
- Ki [15]: 1.26 µM (active)
- Ki [16]: 0.316 µM (active)
- Ki [17]: > 2.51 µM (inactive)

Structure (SMILES): O=Nc1c(-c2c(O)[nH]c3cc(Br)ccc23)[nH]c2ccccc12
- EC50 (Streptokinase A): 44.9 µM (active)
- IC50 (Beta-galactosidase): 40.8 µM (inactive)
- IC50 [18]: 8.89 µM (active)
